For series [1], the target named is BCL2 (Homo sapiens (Human), UniProt P10415). As to the kind of experiment: Molecular level activity test of anti-apoptotic protein BCL2 (HTRF, binding to Bim peptide). The settings on record: HTRF, binding of BCL2 to Bim peptide; read-out: BCL2 nM (inhibitory activity, IC50). The method, boiled down:
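Step one: compound, supplied in 2% DMSO, is mixed with His-tagged BCL2 and biotinylated Bim peptide and reacted for 1 h. Step two: anti-His and streptavidin-XL665 reagents in detection buffer are added. Step three: after a 4 h room-temperature incubation, time-resolved fluorescence is measured.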
In general terms: Time-resolved FRET reads energy transfer from a long-lived donor to a nearby acceptor.

For series [2], the system named is RS4; 11 cells. The series can be described thus: Tumor proliferation inhibitory activity test (MTS) on RS4; 11. Format: cell-based. The settings on record: 3 days incubation. The method, boiled down:
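RS4;11 cells were exposed to serially diluted compound (0.2% DMSO control) for 3 days at 37 °C/5% CO2, followed by MTS for 3–4 h. Read-out was OD490−OD690, and inhibition was calculated relative to the DMSO and blank wells.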

In series [3] the test system is human platelets. The series can be described thus: Platelet viability test (CTG). It counts as cell-based. The note with it: CTG after 24 h. As for the experimental part: After 10 mL of platelet-rich plasma was added to 30 mL of ACD-A solution and uniformly mixed, centrifugation was performed at 1200 g, and the supernatant was discarded; 10 mL of ACD-A solution was added, resuspended, uniformly mixed, and centrifuged at 1200 g for 10 min, and the supernatant was discarded. 5 mL of HEPES-Tyrode's buffer containing 1 μM PGE1 and 0.2 U/mL apyrase was added, slightly inverted, and then centrifuged at 800 g for 5 min, and the supernatant was discarded. 10 mL of HEPES-Tyrode's buffer containing 1 μM PGE1 and 0.2 U/mL apyrase was added, resuspended, and centrifuged at 1000 g for 5 min, and the supernatant was discarded. 2 mL of HEPES-Tyrode's buffer containing 1 μM PGE1+10% FBS-resuspended platelets was added, 200 μL was taken into a centrifuge tube and diluted to 2 mL. Then it was diluted to 1, 0.8, 0.6, 0.4, 0.2, 0.1, 0.08, 0.06, 0.04, 0.02, 0.01 times, the volume was complemented to 100 μL, and 50 μL of CTG reagent was added to detect cell viability. The maximum valid dilution with a fluorescence value not exceeding […] was selected for dilution, 90 μL/well was connected to a 96-well cell plate for chemiluminescence detection. A compound was prepared with HEPES-Tyrode's buffer containing 1 μM of PGE1+10% FBS, and added to the cells, which was gently beaten evenly and detected for cell viability by adding 50 μL CTG after 24 h.

Series [4] relates to RS4; 11 cells. The series can be described thus: In vivo anti-tumor efficacy, RS4; 11 subcutaneous transplanted tumor model. The note with it: 11 transplanted tumor, NOD/SCID mice, after 8 days. An excerpt: Tumor models were established by subcutaneous inoculation of RS4; 11 cells into NOD/SCID mice. When the tumors grew to about 100 mm^3, the mice were divided into groups and administered as follows: The control group was given a corresponding volume of CMC-Na solution by gavage; […]; the weight and tumor size changes of the mice were weighed twice a week, and after 8 days, the efficacy of the compounds on RS4; 11 mice transplanted tumors was investigated.
The relative tumor proliferation rate T/C %=TRTV/CRTV×100% (TRTV: average RTV of the treatment group; CRTV: average RTV of the negative control group). Based on the results of tumor measurements, the relative tumor volume (RTV) was calculated using the formula RTV=Vt/V0, where V0 was the tumor volume measured during group division (i.e. D0), Vt was the tumor volume at a certain measurement, and TRTV and CRTV used the data of the same day.

Series [5] has as its target T1, human CYP3A4 enzyme (Homo sapiens (Human), UniProt P08684). As to the kind of experiment: CYP3A4 enzyme inhibitory activity (Vivid CYP3A4 Green screening kit). The note with it: read-out: CYP3A4 (IC50); Vivid CYP3A4 Green screening kit.
Experimental: (§1) The inhibitory activity of compounds on human CYP3A4 enzyme was detected using a VIVID™ CYP3A4 GREEN SCRNING KIT reagent kit. The Vivid™ CYP450 screening kit includes a Vivid™ substrate, Vivid™ fluorescence standard, reaction buffer, Vivid™ regeneration system, NADP+ and CYP450 BACULOSOMES™ Plus reagent. Operations were performed following the instructions, and a blank control group was set up without adding any compounds.
(§2) The IC50 value of the compounds inhibiting human CYP3A4 enzyme was calculated using Graphpad Prism 7.00 software through the formula Y=100/(1+10^((Log IC50−X)*HillSlope)).
Series [6] has as its target BCL2 (G101V) (Homo sapiens (Human), UniProt P10415, G101V). As to the kind of experiment: Molecular level activity test of anti-apoptotic protein BCL2 (G101V) (HTRF, binding to Bim peptide). The note with it: inhibition of BCL2 (G101V) binding to Bim peptide, read-out: BCL-2 (G101V). The essentials: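 His-tagged recombinant BCL2 (G101V) incubated 1 h with biotin-BIM peptide and compound (2% DMSO), then anti-His and streptavidin-XL665 detection reagents added for 4 h at room temperature. HTRF signal reflects compound effect on BCL2–BIM binding.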

Series [7] deals with BCL-XL (Homo sapiens (Human), UniProt Q07817). The series can be described thus: BCL-XL enzyme molecular level activity test (HTRF, binding to BIM peptide). The settings on record: binding of BCL-XL to BIM peptide, read-out: BCL-XL inhibitory activity (IC50). The method, boiled down: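 HTRF binding assay: His-tagged recombinant BCL-XL with biotin-BIM peptide and compound (2% DMSO), 1 h. Anti-His and streptavidin-XL665 detection reagents added, 4 h at room temperature. Excitation 320 nm; 665/615 nm ratio reflects binding, with no-protein background and no-compound full-binding controls.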
Chain of BCL-XL (Q07817 whole entry): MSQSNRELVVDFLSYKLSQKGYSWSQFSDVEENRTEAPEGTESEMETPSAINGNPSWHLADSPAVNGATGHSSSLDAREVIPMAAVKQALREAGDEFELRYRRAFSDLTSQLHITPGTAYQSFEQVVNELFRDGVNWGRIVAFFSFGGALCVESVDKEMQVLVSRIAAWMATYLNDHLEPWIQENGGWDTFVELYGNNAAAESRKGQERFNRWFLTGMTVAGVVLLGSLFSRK

A short description of series [8]: Canine absorption test. The settings on record: Beagle dogs, 5 mg/kg by gavage.
Experimental: (§3) Experimental method: Beagle dogs were used as experimental animals and administered 5 mg/kg by gavage. The blood collection time points for gavage administration were 0, 0.5, 1, 2, 3, 4, 6, 8, and 24 hours. 3 mL of whole blood was collected, and after centrifugation, plasma was taken for LC-MS analysis.
Series [9] addresses BCL2 (D103Y) (Homo sapiens (Human), UniProt P10415, D103Y). As to the kind of experiment: Molecular level activity test of BCL2 (D103Y) (HTRF, binding to Bim peptide). The note with it: read-out: BCL-2 (D103Y) (nM) (inhibitory activity, IC50). The essentials: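 His-tagged recombinant protein mixed with biotinylated BIM peptide and compound (2% DMSO), reacted 1 h. Anti-His and streptavidin-XL665 detection reagents then added and incubated 4 h at room temperature before HTRF read-out of binding inhibition.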

Series [10] in a line: Rat absorption test. The note with it: Sprague-Dawley, plasma, po, 10 mg/kg.
Experimental: (§4) Experimental method: SD rats were used as experimental animals and administered 10 mg/kg by gavage. The blood collection time points for gavage administration were 0, 0.5, 1, 2, 3, 4, 6, 8, and 24 hours. 3 mL of whole blood was collected, and after centrifugation, 1 mL of plasma was taken for LC-MS analysis.
Series [11] deals with T1, human CYP3A4 enzyme.
Experimental: as §1, §2
A short description of series [12]: in vivo. The note with it: Sprague-Dawley, rat, po, 10 mg/kg.
Experimental: as §4
The conditions of series [13]: beagle, dog, in vivo, 5 mg/kg.
Experimental: as §3

Read-outs that look alike come from different tables or passages of the source. Bounds are passed on as bounds.

T1 sequence (P08684 whole entry): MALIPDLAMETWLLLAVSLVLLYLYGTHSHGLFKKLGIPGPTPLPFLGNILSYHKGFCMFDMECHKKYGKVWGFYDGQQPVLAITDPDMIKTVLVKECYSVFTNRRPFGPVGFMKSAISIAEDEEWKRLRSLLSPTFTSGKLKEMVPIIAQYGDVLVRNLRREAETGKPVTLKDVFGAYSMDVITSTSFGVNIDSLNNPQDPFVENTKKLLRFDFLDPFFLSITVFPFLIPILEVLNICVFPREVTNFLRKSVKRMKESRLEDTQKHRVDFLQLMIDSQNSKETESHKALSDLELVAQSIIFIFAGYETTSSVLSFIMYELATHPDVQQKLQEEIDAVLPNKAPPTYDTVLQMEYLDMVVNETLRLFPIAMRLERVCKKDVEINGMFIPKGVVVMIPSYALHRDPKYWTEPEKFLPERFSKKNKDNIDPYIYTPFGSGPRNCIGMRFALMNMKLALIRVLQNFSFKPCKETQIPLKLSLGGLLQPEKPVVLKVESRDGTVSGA

In the case of `COc1ccc(CN2CCN(C3CC4(CCN(c5cc(Oc6cnc7[nH]ccc7c6)c(C(=O)NS(=O)(=O)c6ccc(NC[C@H]7CC[C@](C)(O)CC7)c([N+](=O)[O-])c6)cc5F)CC4)C3)[C@H](c3ccccc3C(C)C)C2)cc1` [compound 234], the IC50 is < 10 nM in series [1]; < 0.5 nM in [2] (Homo sapiens, RS4-11, 72 h); > 5 µM in series [3]; > 20 µM in series [5]; < 10 nM in [6]; > 500 nM in [7] (values in nM). For the same compound, the IC50 in series [9] was < 10 nM. Further, the T/C % in series [4] (5 mg/kg by gavage) was found to be 1.26%. Also, in [8], the DNAUC is reported as 9103 AUC (h*ng/mL)/dose (mg/kg). Moreover, the AUC (in general, the area under the concentration-time curve, a measure of exposure) in [10] stood at 5630 ng·h/mL.

With `COc1ccc(CN2CCN(C3CC4(CCN(c5cc(Oc6cnc7[nH]ccc7c6)c(C(=O)NS(=O)(=O)c6cc([N+](=O)[O-])c(NC[C@H]7CC[C@](C)(O)CC7)c7[nH]cnc67)cn5)CC4)C3)[C@H](c3ccccc3C(C)C)C2)cc1` [compound 266, 4-((1H-pyrrolo[2,3-b]pyrid-5-yl)oxy)-N-((7-((((1r,4r)-4-hydroxy-4-methylcyclohexyl)methyl)amino)-6-nitro-1H-benzo[d]imidazol-4-yl)sulfonyl)-6-(2-((R)-2-(2-isopropylphenyl)-4-(4-methoxybenzyl)piperazin-1-yl)-7-azaspiro[3.5]non-7-yl) nicotinamide], the IC50 in series [1] was < 10 nM; in series [2] (Homo sapiens, RS4-11, 72 h) it was < 0.5 nM; in [5] it was > 20 µM; in series [6] it was < 10 nM; in series [9], < 10 nM. The compound further showed a T/C % in series [4] (5 mg/kg by gavage) of 15.38%.

With “(R)-2-((1H-pyrrolo[2,3-b]pyrid-5-yl)oxy)-5-fluoro-N-((4-(((4-fluorotetrahydro-2H-pyran-4-yl)methyl)amino)-3-nitrophenyl)sulfonyl)-4-(2-(2-(2-isopropylphenyl)-4-(4-methoxybenzyl)piperazin-1-yl)-7-azaspiro[3.5]non-7-yl)benzamide [compound 152]”, the IC50 in [1] is < 10 nM; in [2], < 0.5 nM; in series [3], > 5 µM; in series [6], < 10 nM; in series [7] (values given in μM), > 1000 nM; in [9], < 10 nM. In series [4] (5 mg/kg by gavage), this compound registered a T/C % of 0.35%.

Consider `COc1ccc(CN2CCN(C3CC4(CCN(c5ccc(C(=O)NS(=O)(=O)c6cc([N+](=O)[O-])c(NCC7(F)CCOCC7)c7[nH]cnc67)c(Oc6cnc7[nH]ccc7c6)c5)CC4)C3)[C@H](c3ccccc3C(C)C)C2)cc1` [compound 261, (R)-2-((1H-pyrrolo[2,3-b]pyrid-5-yl)oxy)-N-((7-(((4-fluorotetrahydro-2H-pyran-4-yl)methyl)amino)-6-nitro-1H-benzo[d]imidazol-4-yl)sulfonyl)-4-(2-(2-(2-isopropylphenyl)-4-(4-methoxybenzyl)piperazin-1-yl)-7-azaspiro[3.5]non-7-yl)benzamide], for which the IC50 in [1] was < 10 nM; in series [2] (Homo sapiens, RS4-11, 72 h) it was < 0.5 nM; in [5], > 20 µM; in series [6] it was < 10 nM; in series [9] it was < 10 nM. Further, the T/C % in series [4] (15 mg/kg by gavage) came out at 5.35%. This compound displayed an AUC in series [10] of 1210 ng·h/mL.

In the case of `COc1ccc(CN2CCN(C3CC4(CCN(c5cc(Oc6cnc7[nH]ccc7c6)c(C(=O)NS(=O)(=O)c6ccc(NCC7(F)CCOCC7)c([N+](=O)[O-])c6)cc5F)CC4)C3)[C@H](c3ccccc3C(C)C)C2)cc1` [compound 152, (R)-2-((1H-pyrrolo[2,3-b]pyrid-5-yl)oxy)-5-fluoro-N-((4-(((4-fluorotetrahydro-2H-pyran-4-yl)methyl)amino)-3-nitrophenyl)sulfonyl)-4-(2-(2-(2-isopropylphenyl)-4-(4-methoxybenzyl)piperazin-1-yl)-7-azaspiro[3.5]non-7-yl)benzamide], the IC50 in [11] is > 20 µM. In [12], this compound came in with an AUC of 3330 ng·h/mL. Besides, the DNAUC in series [13] is 13685 AUC (h*ng/mL)/dose (mg/kg).

As for `COc1ccc(CN2CCN(C3CC4(CCN(c5cc(Oc6cnc7[nH]ccc7c6)c(C(=O)NS(=O)(=O)c6ccc(NC[C@H]7CC[C@](C)(O)CC7)c([N+](=O)[O-])c6)cn5)CC4)C3)[C@H](c3ccccc3C(C)C)C2)cc1` [compound 256, 4-((1H-pyrrolo[2,3-b]pyrid-5-yl)oxy)-N-((4-((((1r, 4r)-4-hydroxy-4-methylcyclohexyl)methyl)amino)-3-nitrophenyl)sulfonyl)-6-(2-((R)-2-(2-isopropylphenyl)-4-(4-methoxybenzyl)piperazin-1-yl)-7-azaspiro[3.5]non-7-yl) nicotinamide], the IC50 is < 10 nM in series [1]; < 0.5 nM in series [2] (Homo sapiens, RS4-11, 72 h); > 20 µM in [5]; < 10 nM in series [6]; < 10 nM in series [9]. The same compound returned an AUC in [10] of 1800 ng·h/mL.

The values above are taken from patent US20250034135A1, “ANTI-APOPTOTIC PROTEIN BCL-2 INHIBITOR, PHARMACEUTICAL COMPOSITION AND USES THEREOF” (HANGZHOU HEALZEN THERAPEUTICS CO., LTD., priority 2021, published 2025).
